# Source: patent US6458765B1, “Dolastatin 15 derivatives” (BASF Aktiengesellschaft, priority 1997, dated 2002)
# What was measured:
# [1] = synthetic Dolastatin 15; cited from earlier work
# [2] = system: P388 lymphocytic leukemia (PS system) cell line; conditions: National Cancer Institute's P388 (PS system); cited from earlier work
# [3] = system: HT-29 colon carcinoma cells; format: cell-based
Substance,IC50 [3],further results
Dolastatin 15,–,solubility in aqueous systems [1]: poor solubility; inhibition of growth of P388 cell line [2]: markedly inhibits the growth
Me2Aib-Val-MeVal-Pro-Pro-NHBn [Compound 3],35 nM,–
Xad Val Xaa Pro Xap [Compound 13],1 nM,–
Xae Val Xaa Pro Xab [Compound 8],510 nM,–
Xam Val Xaa Pro Xab [Compound 10],130 nM,–
Xao Val Xaa Pro Xab [Compound 12],370 nM,–
Xaq Val Xaa Pro Xab [Compound 14],1.5 nM,–
Xar Val Xaa Pro Xab [Compound 15],170 nM,–
Xas Val Xaa Pro Xab [Compound 16],0.73 nM,–
Xat Val Xaa Pro Xab [Compound 17],63 nM,–
Xat Val Xaa Pro Xab [Compound 18],8.8 nM,–
Xau Val Xaa Pro Xab [Compound 76],0.23 nM,–
Xau Val Xaa Pro Xab [Compound 77],7.2 nM,–
Xau Val Xaa Pro Xbp [Compound 73],1.4 nM,–
Xau Val Xaa Pro Xbp [Compound 96],1.7 nM,–
Xau Val Xaa Pro Xbp [Compound 97],32 nM,–
Xau Val Xaa Pro Xbx [Compound 74],51 nM,–
Xau Val Xaa Pro Xcb [Compound 78],4.3 nM,–
Xau Val Xaa Pro Xcc [Compound 90],0.93 nM,–
Xau Val Xaa Pro Xcd [Compound 91],0.83 nM,–
Xaw Val Xaa Pro Xbn [Compound 45],56 nM,–
Xaw Val Xaa Pro Xbp [Compound 48],25 nM,–
Xaw Val Xaa Pro Xbq [Compound 51],46 nM,–

Substance,IC50 [3],further results
Xaw Val Xaa Pro Xbr [Compound 52],340 nM,–
Xaw Val Xaa Pro Xbx [Compound 66],340 nM,–
Xax Val Xaa Pro Xab [Compound 22],640 nM,–
Xay Val Xaa Pro Xab [Compound 24],28 nM,–
Xba Val Xaa Pro Xab [Compound 27],37 nM,–
Xba Val Xaa Pro Xbp [Compound 100],2300 nM,–
Xba Val Xaa Pro Xbp [Compound 101],2100 nM,–
Xba Val Xaa Pro Xcb [Compound 92],1500 nM,–
Xba Val Xaa Pro Xcb [Compound 93],1800 nM,–
Xba Val Xaa Pro Xcc [Compound 102],120 nM,–
Xba Val Xaa Pro Xcc [Compound 103],110 nM,–
Xba Val Xaa Pro Xcd [Compound 104],3500 nM,–
Xbb Val Xaa Pro Xab [Compound 28],49 nM,–
Xbc Val Xaa Pro Xab [Compound 29],36 nM,–
Xbd Val Xaa Pro Xab [Compound 30],6.1 nM,–
Xbd Val Xaa Pro Xab [Compound 31],200 nM,–
Xbe Val Xaa Pro Xab [Compound 32],850 nM,–
Xbe Val Xaa Pro Xab [Compound 33],1200 nM,–
Xbf Val Xaa Pro Xab [Compound 34],5 nM,–
Xbf Val Xaa Pro Xab [Compound 43],59 nM,–
Xbg Val Xaa Pro Xab [Compound 35],140 nM,–
Xbh Val Xaa Pro Xab [Compound 36],6.2 nM,–
Xbh Val Xaa Pro Xab [Compound 37],190 nM,–

Substance,IC50 [3],further results
Xbi Val Xaa Pro Xab [Compound 38],730 nM,–
Xbi Val Xaa Pro Xab [Compound 39],25 nM,–
Xbi Val Xaa Pro Xbx [Compound 75],850 nM,–
Xbi Val Xaa Pro Xcb [Compound 79],1700 nM,–
Xbi Val Xaa Pro Xcb [Compound 80],67 nM,–
Xbi Val Xaa Pro Xcc [Compound 81],130000 nM,–
Xbi Val Xaa Pro Xcc [Compound 82],11 nM,–
Xbi Val Xaa Pro Xcd [Compound 83],130 nM,–
Xbi Val Xaa Pro Xcd [Compound 98],6 nM,–
Xbk Val Xaa Pro Xab [Compound 40],560 nM,–
Xbk Val Xaa Pro Xab [Compound 41],7300 nM,–
Xbk Val Xaa Pro Xcc [Compound 84],1200 nM,–
Xbk Val Xaa Pro Xcc [Compound 85],9500 nM,–
Xbk Val Xaa Pro Xcd [Compound 99],3800 nM,–
Xbl Val Xaa Pro Xab [Compound 42],340 nM,–
Xbl Val Xaa Pro Xab [Compound 54],4.2 nM,–
Xbl Val Xaa Pro Xab [Compound 55],56 nM,–
Xbm Val Xaa Pro Xab [Compound 44],48 nM,–
Xbo Val Xaa Pro Xbn [Compound 46],720 nM,–
Xbo Val Xaa Pro Xbn [Compound 47],23 nM,–
Xbo Val Xaa Pro Xbp [Compound 49],88 nM,–
Xbo Val Xaa Pro Xbp [Compound 50],89 nM,–
Xbo Val Xaa Pro Xbp [Compound 94],3000 nM,–

Substance,IC50 [3],further results
Xbo Val Xaa Pro Xbp [Compound 95],11 nM,–
Xbo Val Xaa Pro Xbq [Compound 64],1700 nM,–
Xbo Val Xaa Pro Xbq [Compound 65],97 nM,–
Xbo Val Xaa Pro Xbr [Compound 62],99 nM,–
Xbo Val Xaa Pro Xbr [Compound 63],56 nM,–
Xbo Val Xaa Pro Xbx [Compound 72],120 nM,–
Xbs Val Xaa Pro Xbt [Compound 53],5 nM,–
Xbs Val Xaa Pro Xbt [Compound 60],1.8 nM,–
Xbv Val Xaa Pro Xab [Compound 57],25 nM,–
Xbw Val Xaa Pro Xab [Compound 58],63 nM,–
Xbw Val Xaa Pro Xab [Compound 59],190 nM,–
Xby Val Xaa Pro Xab [Compound 67],340 nM,–
Xbz Val Xaa Pro Xab [Compound 68],420 nM,–
Xca Val Xaa Pro Xab [Compound 70],7100 nM,–
Xce Val Xaa Pro Xab [Compound 105],18 nM,–
Xcf Val Xaa Pro Xab [Compound 106],97 nM,–
Xcg Val Xaa Pro Xab [Compound 108],7100 nM,–
"[N,N-Dimethyl-2-ethyl-2-phenylglycyl]-Val-MeVal-Pro-Pro-NHBn×HCl [Compound 4]",1.2 nM,–
[N-Methyl-D-Pro]-Val-MeVal-Pro-Pro-NHBn [Compound 5],5 nM,–
[N-Methyl-D-piperidine-2-carbonyl]-Val-MeVal-Pro-Pro-NHBn [Compound 2],0.68 nM,–
[N-Methyl-L-piperidine-2-carbonyl]-Val-MeVal-Pro-Pro-NHBn [Compound 1],47 nM,–
